The numbers were not newly measured in PMC2912417 (Biochemistry, 2010), which cites them from elsewhere.

Where two headings read alike, the source gives them in different places.

The conditions of series [1]: peptide alone.

Take IGLMVGGVVIA [Aβ(32–42)]: in the series on Aβ42-induced toxicity, the “Toxicity of the peptide itself” value is given as “slightly toxic itself”. For the same substance, in series [1], the “Aggregation / fibril formation of the peptide itself” value is “predominantly amorphous, rather than fibrillar, aggregates”. Consider KGAIIGLMVGGVVIA [Aβ(28–42)], for which the “Toxicity of the peptide itself” value in the series on Aβ42-induced toxicity (cell-viability screen) is on record as “highly toxic itself”. For the substance LMVGGVV [Aβ(34–40)], the “Inhibition of Aβ42-induced toxicity” value in the series with Aβ42-induced toxicity (cell-viability screen under similar conditions) is “inactive”.
